Test results: patent publication US12226386B2, “Compositions and methods for treating biofilms” (The Regents of the University of California, priority 2018, dated 2025)

Key:
[1] = test system: fungal biofilms (C. albicans); experiment: biofilm assays (sustained inhibition and/or disruption), fungal; assay type: cell-based, Candida albicans; settings: Tables 4 and 5
Procedure: Other amino acids in the blood of animals could combat bacterial and fungal biofilm and therefore may be useful in treating these bacterial and fungal infections that would lie on the external surfaces of infected animals such as humans and could also be used to combat these pathogens on instruments and surfaces that need to be treated. Two types of biofilm assays were performed: a sustained inhibition assay and a disruption assay. The sustained inhibition assay assessed the compound's ability to prevent biofilm development throughout all stages of biofilm formation, while the disruption assay assessed the compound's ability to break up an existing mature biofilm. For fungal biofilm assays, all solutions were prepared in RPMI 1640 medium. All bacterial biofilm solutions were prepared in Tryptic Soy Broth (TSB), supplemented with 1% glucose (henceforth referred to as TSB-G). All subsequent procedures were performed in a manner that maintained sterility. […] Amino acids were also tested in combinations. Compound solutions were homogenized with gentle agitation in the dark (4° C., 24 hours) before use. Fungal strains were streaked on Yeast Peptone Dextrose (YPD) agar plates and incubated at 30° C. for 48 hours. A single colony from each strain to be tested was inoculated into YPD broth and grown for 12 hours, at 30° C., shaking at 225 rpm. For the fungal biofilm inhibition assay, 1 μl of saturated overnight cell culture was added to either 80 μL of RPMI-1640 or RPMI-1640 supplemented with the amino acid compound solution to be tested, in a 384-well plate. The cells were allowed to adhere to the plate for 90 minutes at 37° C. shaking at 350 rpm. Loosely bound cells were washed once with phosphate buffered saline (PBS) and 80 μl of RPMI-1640, or RPMI-1640 supplemented with the amino acid compound solution was added to the plate. The plate was further incubated for 24 hours at 37° C. shaking at 350 rpm. Media was carefully aspirated and the biofilm was measured by optical density at 600 nm. Twelve replicates were performed for each tested condition and the reported values are normalized to the control (RPMI-1640 media only). For the fungal biofilm disruption assays, 80 μL of RPMI-1640 was added to the plate, along with 1 μL of overnight cell culture. The cells were allowed to adhere to the plate for 90 minutes at 37° C. shaking at 350 rpm. Loosely bound cells were washed once with PBS and 80 μL of RPMI-1640 was added to the plate. The plate was further incubated for 24 hours at 37° C. shaking at 350 rpm. Media was carefully aspirated from the mature biofilm and 80 μL of RPMI-1640, or RPMI-1640 supplemented with the amino acid compound solution to be tested, was gently added to the plate. The plate was further incubated for 24 hours at 37° C. shaking at 350 rpm. Media was carefully aspirated and the biofilm was measured by optical density at 600 nm. Twelve replicates were performed for each tested condition and the reported values are normalized to the control (RPMI-1640 media only).

C. albicans biofilms = experiment: in vitro sustained inhibition biofilm assay, fungal; assay type: cell-based, Candida albicans; settings: 1% amino acid, p<0.001
Procedure: Two types of biofilm assays were performed: a sustained inhibition assay and a disruption assay.
For fungal biofilm assays, all solutions were prepared in RPMI 1640 medium. All bacterial biofilm solutions were prepared in Tryptic Soy Broth (TSB), supplemented with 1% glucose (henceforth referred to as TSB-G). All subsequent procedures were performed in a manner that maintained sterility. A solution of each amino acid to be tested was prepared in weight to volume concentrations ranging from 0.1-5.0%. Amino acids were also tested in combinations. Compound solutions were homogenized with gentle agitation in the dark (4° C., 24 hours) before use.
Fungal strains were streaked on Yeast Peptone Dextrose (YPD) agar plates and incubated at 30° C. for 48 hours. A single colony from each strain to be tested was inoculated into YPD broth and grown for 12 hours, at 30° C., shaking at 225 rpm. For the fungal biofilm inhibition assay, 1 μl of saturated overnight cell culture was added to either 80 μL of RPMI-1640 or RPMI-1640 supplemented with the amino acid compound solution to be tested, in a 384-well plate. […] Media was carefully aspirated and the biofilm was measured by optical density at 600 nm. Twelve replicates were performed for each tested condition and the reported values are normalized to the control (RPMI-1640 media only). For the fungal biofilm disruption assays, 80 μL of RPMI-1640 was added to the plate, along with 1 μL of overnight cell culture. […] Loosely bound cells were washed once with PBS and 80 μL of RPMI-1640 was added to the plate. […] Media was carefully aspirated from the mature biofilm and 80 μL of RPMI-1640, or RPMI-1640 supplemented with the amino acid compound solution to be tested, was gently added to the plate. […] Media was carefully aspirated and the biofilm was measured by optical density at 600 nm. Twelve replicates were performed for each tested condition and the reported values are normalized to the control (RPMI-1640 media only).
The plate was further incubated for 24 hours at 37° C. with shaking (350 rpm). Media was carefully aspirated and the biofilm was measured by optical density at 600 nm.

SMILES | effect on C. albicans biofilms in inhibition and disruption assays [1] | Reduce F Biofilm (C. albicans biofilms)
N[C@@H](CC(=O)O)C(=O)O [Aspartic Acid, L-aspartic acid] | both inhibited and disrupted | ●● (two dots [i.e. ●●] signifies major effect (greater than about 30% change))
N[C@@H](CS)C(=O)O [Cysteine, L-cysteine] | both inhibited and disrupted | ●● (two dots [i.e. ●●] signifies major effect (greater than about 30% change))
N[C@@H](CCC(=O)O)C(=O)O [Glutamic Acid, L-glutamic acid] | both inhibited and disrupted | ●● (two dots [i.e. ●●] signifies major effect (greater than about 30% change))
